Reference: patent publication US5631146A, “DNA aptamers and catalysts that bind adenosine or adenosine-5'-phosphates and methods for isolation thereof” (The General Hospital Corporation, priority 1995, dated 1997)

Legend:
[1] = tested on: adenosine/ATP-binding single-stranded DNA aptamer (minimal ATP aptamer DH25.42, SEQ ID NO:46); assay: ATP analog elution of bound aptamer from ATP-agarose column; conditions: 3 column volumes of 1.5 mM analog
Procedure: FIG. 9A-C are graphs of exemplary elution profiles with analogs of ATP. DNA was loaded onto an ATP-agarose affinity column and washed with 10 column volumes of wash buffer. Bound DNA was then eluted with 3 column volumes of wash buffer containing 1.5 mM analog, then washed with 2 more column volumes of wash buffer; remaining DNA was then eluted in 3 column volumes of wash buffer containing 1.5 mM ATP. Data point at column volume 19 is that remaining on the column after all washes. Elution profiles with 9A. adenosine, 9B. 3-methyl adenine, and 9C. purine riboside.
FIG. 10 is a schematic diagram showing the specifity of the adenosine/ATP aptamer, as determined by analog elution experiments. ++, 85-100% of DNA eluted in 3 column volumes of 1.5 mM ligand; +, 70-84% of DNA eluted in 3 column volumes of 1.5 mM ligand; +/-, 6%-69% of DNA eluted in 3 column volumes of 1.5 mM ligand; -, <5% of DNA eluted in 3 column volumes of 1.5 mM ligand. The regions most important for binding are highlighted by the shaded boxes. […]
10-500 ng (1.2 pmol-60 pmol) of affinity purified DNA was loaded onto a 1/4 ml bed volume ATP-agarose column pre-equilibrated with column buffer. […] Each fraction was then analyzed by Cerenkov counting. […]

[2] = biological target: adenosine/ATP-binding single-stranded DNA aptamer (minimal ATP aptamer DH25.42, SEQ ID NO:46); assay: Kd for adenosine by analytical ultrafiltration; conditions: room temperature, column buffer (300 mM NaCl, 5 mM MgCl2, 20 mM Tris pH 7.6), 5.49 nM [3H]adenosine, average of two estimates, read-out: Kd for adenosine in solution
Procedure: Although quantitative binding data from column elution experiments is imprecise, an estimate of adenosine affinity in solution was obtained by ultrafiltration experiments (Jenison et al., Science 263:1425-1429, (1994)).
The Kd for adenosine was measured by analytical ultrafiltration (Jenison et al., Science 263:1425-1429, (1994)). In this technique bound and unbound ligand partition across a membrane in a ultra filtration device. DNA (0.06 μM-30 μM) was incubated for 5 min. at room temperature in 200 μl of column buffer containing 5.49 nM [2,8,5'^3H] adenosine. The reaction mixture was loaded onto an Microcon 10 microconcentrator (Amicon) and spun at 14000 RPM in an Eppendorf 5415 centrifuge for 4 min., resulting in 100 μl of ultrafiltrate. This method could not be used with ATP because only 30% of ATP passed through the filter in 50% of the volume. Even with adenosine, only 40-45% passed through in 50% of the volume. The Kd was estimated from the concentration of DNA calculated to decrease the amount of adenosine passing through the filter by 50%. During the course of the experiment the DNA concentration increases by a factor of two since the DNA is retained above the filter; therefore, using the initial DNA concentration would give an artificially low Kd, and using the final DNA concentration would give an artificially high Kd. The Kd reported is the average of these two estimates. […]

| Structure (SMILES) | elution of bound aptamer from the ATP-agarose column by analog [1] | Kd [2] |
| --- | --- | --- |
| Nc1ncnc2c1ncn2[C@H]1O[C@H](CO)[C@@H](O)[C@H]1O [9-α-ribofuranosyladenine] | did not elute bound aptamer |  |
| Nc1ncnc2c1ncn2[C@@H]1O[C@H](CO)[C@@H](O)[C@H]1O [adenosine] |  | 6 ± 3 µM |
